Measurements published in the supplement of paper PMC10307832.

Assays:
Assay in all cases: relative viability (nuclei count vs DMSO), 5 days (fraction); higher = more cells survive
GSK-J4 + Alpelisib = compound: CCOC(=O)CCNc1cc(N2CCc3ccccc3CC2)nc(-c2ccccn2)n1 [GSK-J4] + Cc1nc(NC(=O)N2CCC[C@H]2C(N)=O)sc1-c1ccnc(C(C)(C)C(F)(F)F)c1 [Alpelisib] (partner 2 µM)
Method in brief: (§1)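 Lung cancer cell lines were pin-tool dosed in 1536-well plates on the day after seeding, with either a lone drug or a fixed anchor-drug dose plus five library-drug doses (not always all listed) in √10 steps. Nuclei were counted on 4× images after 5 days. Relative viability is the ratio of treated-well to vehicle-well nuclei counts, with each value a median of duplicate plates.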

GSK-J4 + Dasatinib = compound: CCOC(=O)CCNc1cc(N2CCc3ccccc3CC2)nc(-c2ccccn2)n1 [GSK-J4] + Cc1nc(Nc2ncc(C(=O)Nc3c(C)cccc3Cl)s2)cc(N2CCN(CCO)CC2)n1 [Dasatinib] (partner 0.075 µM)
Method in brief: as §1

AZ3146 + Foretinib = compound: CN1CCC(CC1)OC2=CC(=C(C=C2)NC3=NC=C4C(=N3)N(C(=O)N4C)C5CCCC5)OC [AZ3146] + COc1cc2c(Oc3ccc(NC(=O)C4(C(=O)Nc5ccc(F)cc5)CC4)cc3F)ccnc2cc1OCCCN1CCOCC1 [Foretinib] (partner 0.25 µM)
Method in brief: as §1

AZ3146 + Phenformin = compound: CN1CCC(CC1)OC2=CC(=C(C=C2)NC3=NC=C4C(=N3)N(C(=O)N4C)C5CCCC5)OC [AZ3146] + N=C(N)NC(=N)NCCc1ccccc1 [Phenformin] (partner 250 µM)
Method in brief: as §1

| Cell Line | relative viability (GSK-J4 + Alpelisib; first compound 0.5 µM) | relative viability (GSK-J4 + Alpelisib; first compound 5 µM) | relative viability (GSK-J4 + Alpelisib; first compound 15.81 µM) | relative viability (GSK-J4 + Alpelisib; first compound 50 µM) | relative viability (GSK-J4 + Dasatinib; first compound 0.5 µM) | relative viability (GSK-J4 + Dasatinib; first compound 1.581 µM) | relative viability (GSK-J4 + Dasatinib; first compound 5 µM) | relative viability (GSK-J4 + Dasatinib; first compound 15.81 µM) | relative viability (GSK-J4 + Dasatinib; first compound 50 µM) | relative viability (AZ3146 + Foretinib; first compound 0.08 µM) | relative viability (AZ3146 + Foretinib; first compound 0.253 µM) | relative viability (AZ3146 + Foretinib; first compound 0.8 µM) | relative viability (AZ3146 + Foretinib; first compound 2.53 µM) | relative viability (AZ3146 + Foretinib; first compound 8 µM) | relative viability (AZ3146 + Phenformin; first compound 0.08 µM) | relative viability (AZ3146 + Phenformin; first compound 0.253 µM) | relative viability (AZ3146 + Phenformin; first compound 0.8 µM) | relative viability (AZ3146 + Phenformin; first compound 2.53 µM) | relative viability (AZ3146 + Phenformin; first compound 8 µM) | relative viability (GSK-J4 + Alpelisib; first compound 1.581 µM) |
| --- | --- | --- | --- | --- | --- | --- | --- | --- | --- | --- | --- | --- | --- | --- | --- | --- | --- | --- | --- | --- |
| NCI-H23 | 0.781 | 0.892 | 0.605 | 0.604 | 0.872 | 0.73 | 0.723 | 0.723 | 0.617 | 1.02 | 1.08 | 1.19 | 1.01 | 0.612 | 0.823 | 0.805 | 0.832 | 0.789 | 0.8 |  |
| NCI-H322M | 0.901 | 0.734 | 0.747 | 0.733 | 0.269 | 0.19 | 0.237 | 0.23 | 0.278 | 0.893 | 0.943 | 0.837 | 0.738 | 0.642 | 0.82 | 0.811 | 0.715 | 0.833 | 0.585 | 0.718 |
| NCI-H358 | 0.868 | 0.98 | 0.876 | 0.773 | 0.201 | 0.132 | 0.139 | 0.152 | 0.158 | 0.608 | 0.637 | 0.554 | 0.504 | 0.212 | 0.451 | 0.283 | 0.319 | 0.313 | 0.149 | 0.639 |
| NCI-H441 | 0.741 | 0.475 | 0.736 | 0.57 | 0.537 | 0.537 | 0.735 | 0.516 | 0.358 | 0.92 | 0.949 | 1.06 | 1 | 1.07 | 0.762 | 0.884 | 0.812 | 0.864 | 0.737 | 0.521 |
| NCI-H460 | 0.54 | 0.554 | 0.456 | 0.433 | 0.524 | 0.445 | 0.471 | 0.37 | 0.363 | 1.01 | 1.06 | 0.92 | 0.874 | 0.312 | 0.49 | 0.493 | 0.466 | 0.515 | 0.0767 | 0.377 |
| NCI-H520 | 0.899 | 1.2 | 0.868 | 0.834 | 0.217 | 0.191 | 0.154 | 0.125 | 0.184 | 0.566 | 0.867 | 0.58 | 0.91 | 0.83 | 0.385 | 0.497 | 0.323 | 0.637 | 0.375 | 0.781 |
| NCI-H596 | 0.479 | 0.525 | 0.457 | 0.477 | 0.562 | 0.611 | 0.645 | 0.497 | 0.599 | 0.793 | 0.714 | 0.999 | 0.691 | 0.881 | 0.672 | 0.738 | 0.722 | 0.735 | 0.797 | 0.503 |
| NCI-H647 | 1.22 | 0.927 | 1.05 | 0.975 | 0.2 | 0.164 | 0.0733 | 0.285 | 0.131 | 1.01 | 1.21 | 0.857 | 1.16 | 1.21 | 0.394 | 0.649 | 0.59 | 0.465 | 0.32 | 1.03 |
| NCI-H650 | 0.926 | 0.729 | 1.07 | 0.767 | 0.512 | 0.507 | 0.277 | 0.406 | 0.324 | 0.812 | 0.996 | 0.961 | 1.03 | 1.18 | 0.386 | 0.44 | 0.445 | 0.526 | 0.461 | 1.11 |
| NCI-H661 | 0.727 | 0.578 | 0.5 | 0.53 | 0.862 | 0.755 | 0.636 | 0.641 | 0.649 | 0.98 | 1.03 | 0.97 | 0.982 | 0.764 | 0.285 | 0.25 | 0.265 | 0.274 | 0.29 | 0.602 |
| NCI-H727 | 0.549 | 0.894 | 0.621 | 0.264 | 0.338 | 0.305 | 0.522 | 0.298 | 0.223 | 0.952 | 0.967 | 0.975 | 0.981 | 0.86 | 0.456 | 0.545 | 0.341 | 0.61 | 0.417 |  |
| NCI-H838 | 1.02 |  | 0.962 | 0.905 | 0.325 | 0.24 | 0.23 | 0.266 | 0.275 | 1.06 | 1.09 | 0.954 | 1.03 | 0.788 | 0.581 | 0.554 | 0.556 | 0.517 | 0.229 | 0.927 |
| NCI-H1355 | 0.761 | 0.857 | 0.762 | 0.757 | 0.749 | 0.654 | 0.342 | 0.538 | 0.675 | 0.974 | 0.968 | 0.936 | 1.04 | 1.05 | 0.446 | 0.444 | 0.437 | 0.465 | 0.404 | 0.741 |
| NCI-H1395 | 1.03 | 0.845 | 1.14 | 0.821 | 0.402 | 0.428 | 0.382 | 0.355 | 0.375 | 0.989 | 0.962 | 0.949 | 1.07 | 1.02 | 0.394 | 0.45 | 0.379 | 0.423 | 0.445 | 0.88 |
| NCI-H1437 | 0.904 | 0.908 | 0.873 | 0.428 | 0.426 | 0.438 | 0.353 | 0.307 | 0.126 | 1.24 | 1.31 | 1.26 | 1.35 | 1.26 | 0.264 | 0.34 | 0.312 | 0.295 | 0.313 | 0.979 |
| NCI-H1563 | 0.885 | 0.872 | 0.891 | 1.02 | 0.51 | 0.695 | 0.461 | 0.42 | 0.417 | 0.901 | 1.07 | 0.903 | 0.901 | 0.864 | 0.619 | 0.645 | 0.596 | 0.639 | 0.644 | 0.85 |
| NCI-H1651 | 0.888 | 0.957 | 0.93 | 0.892 | 0.537 | 0.306 | 0.367 | 0.443 | 0.477 | 0.729 | 0.726 | 0.809 | 0.849 | 0.836 | 0.31 | 0.316 | 0.345 | 0.34 | 0.313 | 0.814 |
| NCI-H1666 | 0.881 | 1.08 | 0.985 | 0.508 | 0.774 | 0.879 | 0.526 | 0.802 | 0.536 | 0.964 | 0.994 | 1.02 | 1.05 | 0.839 | 0.592 | 0.574 | 0.53 | 0.608 | 0.528 |  |
| NCI-H1734 | 0.679 | 0.568 | 0.671 | 0.591 | 0.405 | 0.454 | 0.378 | 0.396 | 0.468 | 0.811 | 0.859 | 0.885 | 0.853 | 0.705 | 0.393 | 0.373 | 0.406 | 0.426 | 0.376 | 0.597 |
| NCI-H1755 | 0.897 | 1.02 | 0.915 | 0.852 | 0.367 | 0.406 | 0.246 | 0.364 | 0.361 | 0.917 | 0.935 | 0.859 | 0.915 | 0.97 | 0.548 | 0.577 | 0.57 | 0.601 | 0.569 | 0.763 |
| NCI-H1793 | 0.79 | 0.715 | 0.602 | 0.275 | 0.433 | 0.365 | 0.239 | 0.358 | 0.414 | 0.672 | 0.699 | 0.755 | 0.686 | 0.316 | 0.473 | 0.286 | 0.339 | 0.35 | 0.213 | 0.737 |
| NCI-H1915 | 0.972 | 1.04 | 0.99 | 1.01 | 0.342 | 0.36 |  | 0.316 | 0.352 | 0.92 | 1.12 | 1.1 | 1.22 | 1.16 | 0.285 | 0.375 | 0.381 | 0.365 | 0.343 | 0.97 |
| NCI-H1944 | 0.833 | 0.964 | 0.897 | 0.822 | 0.225 | 0.223 | 0.179 | 0.196 | 0.184 | 0.664 | 0.88 | 0.985 | 0.943 | 0.99 | 0.168 | 0.18 | 0.188 | 0.19 | 0.207 | 0.709 |
| NCI-H1975 | 0.615 |  | 0.678 | 0.837 | 0.335 | 0.361 | 0.253 | 0.267 | 0.284 | 0.915 | 0.886 | 1.04 | 0.977 | 0.362 | 0.406 | 0.387 | 0.386 | 0.401 | 0.301 | 0.613 |
| NCI-H1993 | 0.657 | 0.702 | 0.667 | 0.621 | 0.613 | 0.649 | 0.716 | 0.52 | 0.43 | 0.866 | 0.776 | 0.771 | 0.834 | 0.834 | 0.513 | 0.509 | 0.499 | 0.557 | 0.45 | 0.643 |
| NCI-H2009 | 1.1 | 1.08 | 1.1 | 0.966 | 0.298 | 0.276 | 0.166 | 0.265 | 0.189 | 1.11 | 1.28 | 1.26 | 1.22 | 0.957 | 0.478 | 0.494 | 0.402 | 0.386 | 0.311 | 1.16 |
| NCI-H2023 | 0.604 | 0.75 | 0.582 | 0.583 | 0.49 |  | 0.529 | 0.48 | 0.428 | 0.783 | 0.788 | 0.774 | 0.949 | 0.227 | 0.403 | 0.428 | 0.349 | 0.38 | 0.217 | 0.471 |
